We go through 7 molecules from ChEMBL document CHEMBL1201862, “PubChem BioAssay data set” (2004).

Activity calls are given as the source filed them. Some results are limits rather than exact numbers.

The target of one assay is Troponin, cardiac muscle (Homo sapiens, UniProt P19429+P45379+P63316). The assay can be described thus: Fluorescence-based biochemical high throughput dose response assay for activators of the calcium sensitivity of cardiac Regulated Thin Filaments (RTF). [Related pubchem assays (depositor defined):AID493008, AID493018, AID504382, AID504383]. Type of assay: protein-complex assay.

The nature of assay [1]: mammalian cell cytotoxicity, dose response, cytotoxicity control, plate reader, cherry-pick samples (AID 504397). The assay is classed as functional, cell-based.
Assay [2] has as its target T1, Tyrosine-protein phosphatase non-receptor type 22 (Homo sapiens, UniProt Q9Y2R2).
T1 sequence (Q9Y2R2 whole entry): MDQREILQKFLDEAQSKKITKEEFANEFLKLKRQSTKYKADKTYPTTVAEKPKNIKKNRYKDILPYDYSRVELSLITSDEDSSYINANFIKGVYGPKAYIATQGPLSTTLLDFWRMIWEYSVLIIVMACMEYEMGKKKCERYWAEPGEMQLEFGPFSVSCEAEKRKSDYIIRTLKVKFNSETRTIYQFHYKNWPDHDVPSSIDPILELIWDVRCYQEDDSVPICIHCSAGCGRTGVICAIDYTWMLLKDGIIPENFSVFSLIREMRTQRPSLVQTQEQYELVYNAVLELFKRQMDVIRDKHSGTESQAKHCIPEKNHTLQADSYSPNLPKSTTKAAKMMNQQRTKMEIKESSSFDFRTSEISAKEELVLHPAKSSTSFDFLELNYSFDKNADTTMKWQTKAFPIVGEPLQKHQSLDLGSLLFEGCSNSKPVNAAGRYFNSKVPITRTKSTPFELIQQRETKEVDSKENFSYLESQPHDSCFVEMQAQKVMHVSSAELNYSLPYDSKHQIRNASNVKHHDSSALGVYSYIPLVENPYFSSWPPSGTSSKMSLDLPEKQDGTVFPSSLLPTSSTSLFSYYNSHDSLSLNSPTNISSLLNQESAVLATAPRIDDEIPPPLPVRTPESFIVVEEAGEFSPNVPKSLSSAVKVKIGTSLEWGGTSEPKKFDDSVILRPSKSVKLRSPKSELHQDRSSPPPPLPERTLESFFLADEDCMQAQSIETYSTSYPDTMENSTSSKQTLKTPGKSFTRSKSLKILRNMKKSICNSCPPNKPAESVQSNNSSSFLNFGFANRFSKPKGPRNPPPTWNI
The assay is classed as functional.

Assay [3] has as its target T2, Tyrosine-protein phosphatase non-receptor type 7 (Homo sapiens, UniProt P35236).
T2 sequence (P35236 whole entry): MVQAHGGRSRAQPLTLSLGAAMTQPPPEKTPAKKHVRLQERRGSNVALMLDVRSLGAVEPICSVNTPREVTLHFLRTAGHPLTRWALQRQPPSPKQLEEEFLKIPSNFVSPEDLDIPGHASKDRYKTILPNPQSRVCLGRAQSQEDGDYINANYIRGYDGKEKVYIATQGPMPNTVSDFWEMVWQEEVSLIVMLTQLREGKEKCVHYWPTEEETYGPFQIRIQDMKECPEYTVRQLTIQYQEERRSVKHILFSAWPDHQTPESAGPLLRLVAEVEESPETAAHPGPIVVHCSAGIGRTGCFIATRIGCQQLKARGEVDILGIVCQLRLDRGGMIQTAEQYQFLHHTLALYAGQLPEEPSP
The assay is classed as functional.

The target of assay [4] is T1, Tyrosine-protein phosphatase non-receptor type 22. The assay is classed as functional. This is another data set of the same source.
The nature of assay [5]: C. albicans growth with fluconazole, confirmation, fluorescence, retest (AID 2467). Type of assay: functional, cell-based.
In the next assay the target is T3, Coagulation factor XII (Homo sapiens, UniProt P00748).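 Note: activated factor XIIa alpha cleaving a fluorogenic AMC peptide substrate; inhibitor potency from loss of enzyme activity.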
T3 sequence (P00748 whole entry): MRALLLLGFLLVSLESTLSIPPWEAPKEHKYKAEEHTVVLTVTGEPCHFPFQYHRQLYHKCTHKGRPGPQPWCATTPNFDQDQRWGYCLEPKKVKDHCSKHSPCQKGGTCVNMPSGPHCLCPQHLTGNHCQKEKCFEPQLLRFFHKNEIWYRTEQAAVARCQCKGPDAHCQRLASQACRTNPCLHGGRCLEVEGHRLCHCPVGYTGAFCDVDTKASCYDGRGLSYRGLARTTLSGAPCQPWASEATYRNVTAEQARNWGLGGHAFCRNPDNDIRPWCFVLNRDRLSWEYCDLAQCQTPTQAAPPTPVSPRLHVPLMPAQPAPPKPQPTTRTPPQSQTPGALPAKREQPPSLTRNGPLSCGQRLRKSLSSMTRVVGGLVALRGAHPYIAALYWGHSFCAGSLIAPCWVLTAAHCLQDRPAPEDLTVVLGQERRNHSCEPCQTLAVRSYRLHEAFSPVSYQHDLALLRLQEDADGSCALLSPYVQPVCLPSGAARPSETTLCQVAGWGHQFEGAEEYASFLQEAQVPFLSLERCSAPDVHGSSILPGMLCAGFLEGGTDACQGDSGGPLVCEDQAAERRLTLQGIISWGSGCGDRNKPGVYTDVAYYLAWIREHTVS
Type of assay: functional.

The target of another assay is Cytochrome P450 3A4 (Homo sapiens, UniProt P08684).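 Note: CYP3A4 tested as one member of a cytochrome P450 panel screen.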
For assay [6], the target named is T4, Fatty acid synthase (Homo sapiens, UniProt P49327). Nature of the assay: FAS thioesterase domain inhibitors, dose response, biochemical, endpoint fluorescence intensity, uHTS hits (AID 624327).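 Note: fluorescence from hydrolysis of an O-methyl fluorescein acyl ester substrate by the enzyme.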 The assay is classed as functional.
In assay [7] the target is DNA damage-inducible transcript 3 protein (Mus musculus, UniProt P35639). Type of assay: functional, Cricetulus griseus.
A short description of assay [8]: NIH-3T3 fibroblast cytotoxicity, dose response, cytotoxicity control, cell-based, fluorescence, Alamar Blue, secondary assay (AID 2327).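 Note: NIH-3T3 mouse fibroblasts cultured with fluconazole at 8 µg/mL.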 Type of assay: functional.
The next assay deals with X-box-binding protein 1 (Homo sapiens, UniProt P17861). Type of assay: functional, Cricetulus griseus.
Assay [9] has as its target T4, Fatty acid synthase. The assay can be described thus: FAS thioesterase domain inhibitors, dose response, biochemical, kinetic fluorescence intensity (AID 624326).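 Note: rate of fluorescence rise from hydrolysis of a fluorogenic O-methyl fluorescein ester substrate.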 The assay is classed as functional.
The next assay addresses T5, Mucolipin-3 (Homo sapiens, UniProt Q8TDD5).
T5 sequence (Q8TDD5 whole entry): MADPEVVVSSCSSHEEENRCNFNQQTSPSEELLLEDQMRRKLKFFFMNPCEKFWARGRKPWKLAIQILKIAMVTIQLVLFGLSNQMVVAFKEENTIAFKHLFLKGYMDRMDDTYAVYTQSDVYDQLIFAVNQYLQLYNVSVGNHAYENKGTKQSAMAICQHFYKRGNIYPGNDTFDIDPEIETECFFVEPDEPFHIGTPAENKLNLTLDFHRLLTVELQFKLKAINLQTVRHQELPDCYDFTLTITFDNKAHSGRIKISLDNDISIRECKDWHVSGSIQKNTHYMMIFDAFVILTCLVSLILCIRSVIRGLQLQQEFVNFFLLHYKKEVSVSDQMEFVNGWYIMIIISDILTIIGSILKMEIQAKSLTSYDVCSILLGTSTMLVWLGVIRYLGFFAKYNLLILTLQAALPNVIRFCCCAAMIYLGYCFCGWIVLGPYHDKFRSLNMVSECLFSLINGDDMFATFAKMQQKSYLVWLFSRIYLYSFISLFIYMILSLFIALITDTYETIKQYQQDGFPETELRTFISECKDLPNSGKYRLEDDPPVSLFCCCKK
The assay can be described thus: Fluorescence counterscreen assay for […] agonists: dose response cell-based high-throughput screening assay to identify agonists of the transient receptor potential channel ML3 (TRPML3). [Related pubchem assays: 1424, 1448 ]. The assay is classed as functional.

Another assay has as its target Ion channel NompC (Danio rerio, UniProt Q7T1G6). Nature of the assay: Dose response cell-based high-throughput screening assay for agonists of the transient receptor potential channel N1 (TRPN1). [Related pubchem assays (depositor defined):AID1424, AID1448]. Type of assay: functional.
Assay [10] concerns the target T6, Peroxisome proliferator-activated receptor gamma (Homo sapiens, UniProt P37231).
T6 sequence (P37231 whole entry): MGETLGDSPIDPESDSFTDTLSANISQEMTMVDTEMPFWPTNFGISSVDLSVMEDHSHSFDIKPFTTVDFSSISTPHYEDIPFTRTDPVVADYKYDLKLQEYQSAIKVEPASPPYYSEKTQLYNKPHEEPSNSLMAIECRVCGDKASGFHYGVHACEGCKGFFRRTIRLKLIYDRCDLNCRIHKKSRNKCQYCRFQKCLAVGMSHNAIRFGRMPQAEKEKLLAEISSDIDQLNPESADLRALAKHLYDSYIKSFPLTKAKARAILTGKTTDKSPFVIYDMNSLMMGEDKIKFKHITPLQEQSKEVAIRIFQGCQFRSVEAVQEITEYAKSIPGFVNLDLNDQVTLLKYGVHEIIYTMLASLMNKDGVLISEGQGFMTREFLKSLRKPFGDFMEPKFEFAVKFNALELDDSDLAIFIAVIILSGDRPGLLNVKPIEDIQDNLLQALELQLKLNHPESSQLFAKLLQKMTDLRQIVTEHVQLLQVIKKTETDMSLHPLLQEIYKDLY
The assay can be described thus: PPARg partial agonists, dose response, cell-based, luminescence, assay provider (AID 504447). Type of assay: functional.

Assay [11] deals with ATP-dependent molecular chaperone HSP82 (Candida albicans (strain WO-1) (Yeast), UniProt C4YTQ8). Nature of the assay: loss of DOC-induced GRE-beta-galactosidase reporter signal, dose response, Hsp90 inhibitor project, S. cerevisiae, luminescence (AID 2400).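 Note: beta-galactosidase luminescence from glucocorticoid response element reporter as proxy for Hsp90 function; inhibitor potency where signal loss means Hsp90 inhibition.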 Type of assay: functional, cell-based.
In assay [12] the target is T6, Peroxisome proliferator-activated receptor gamma. Nature of the assay: PPARg ligand-binding domain binders, dose response, PPARg partial agonist project, biochemical, TR-FRET, LanthaScreen (AID 504446).
For assay [13] the target is unchanged. Nature of the assay: PPARg ligand-binding domain binders, dose response, PPARg partial agonist project, biochemical, fluorescence polarization, PolarScreen (AID 504453).
The target in assay [14] is T7, Serine/threonine-protein phosphatase (Candida dubliniensis (strain CD36 / CBS 7987 / NCPF 3949 / NRRLY-17841) (Yeast), UniProt B9W6M3).
T7 sequence (B9W6M3 whole entry): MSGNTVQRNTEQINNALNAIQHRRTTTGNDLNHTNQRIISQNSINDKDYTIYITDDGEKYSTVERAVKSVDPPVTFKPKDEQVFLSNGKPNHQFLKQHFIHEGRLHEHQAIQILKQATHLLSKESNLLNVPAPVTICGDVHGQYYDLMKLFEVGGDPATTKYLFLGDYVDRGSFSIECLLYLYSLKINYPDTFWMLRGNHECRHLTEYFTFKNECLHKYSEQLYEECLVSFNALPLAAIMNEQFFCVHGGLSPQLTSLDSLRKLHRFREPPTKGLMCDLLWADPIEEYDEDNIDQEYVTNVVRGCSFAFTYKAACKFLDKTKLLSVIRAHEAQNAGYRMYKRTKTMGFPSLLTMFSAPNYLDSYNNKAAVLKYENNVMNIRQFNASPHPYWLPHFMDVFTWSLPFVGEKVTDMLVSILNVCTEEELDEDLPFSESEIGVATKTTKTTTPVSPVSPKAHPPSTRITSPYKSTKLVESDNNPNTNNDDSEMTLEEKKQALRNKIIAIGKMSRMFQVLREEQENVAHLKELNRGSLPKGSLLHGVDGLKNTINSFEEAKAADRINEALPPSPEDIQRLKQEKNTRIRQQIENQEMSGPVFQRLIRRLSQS
The assay can be described thus: calcineurin pathway inhibitors in yeast reporter, dose response, S. cerevisiae, CDRE-lacZ, luminescence, secondary (AID 2388).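 Note: yeast reporter cells carrying a calcineurin-responsive lacZ construct stimulated with calcium chloride; luminescent beta-galactosidase reporter signal in whole cells rather than isolated phosphatase activity; potency for inhibition where a drop in reporter signal means calcineurin blockade.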 Type of assay: functional, cell-based.

Assay [15] addresses Voltage-dependent T-type calcium channel subunit alpha-1H (Homo sapiens, UniProt O95180). The assay can be described thus: Cav3.2 T-type channel inhibitors, synthesized analogs, SAR follow-up, cell-based, synthetic library set 2, HEK293 HH8, Fluo-4 (AID 493023). Type of assay: functional.
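Throughout, for Absolute IC50 (XBP1): confirmatory dose-response counter-screen serving a CHOP assay.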

T4 sequence (P49327 whole entry, the tested form may be a part): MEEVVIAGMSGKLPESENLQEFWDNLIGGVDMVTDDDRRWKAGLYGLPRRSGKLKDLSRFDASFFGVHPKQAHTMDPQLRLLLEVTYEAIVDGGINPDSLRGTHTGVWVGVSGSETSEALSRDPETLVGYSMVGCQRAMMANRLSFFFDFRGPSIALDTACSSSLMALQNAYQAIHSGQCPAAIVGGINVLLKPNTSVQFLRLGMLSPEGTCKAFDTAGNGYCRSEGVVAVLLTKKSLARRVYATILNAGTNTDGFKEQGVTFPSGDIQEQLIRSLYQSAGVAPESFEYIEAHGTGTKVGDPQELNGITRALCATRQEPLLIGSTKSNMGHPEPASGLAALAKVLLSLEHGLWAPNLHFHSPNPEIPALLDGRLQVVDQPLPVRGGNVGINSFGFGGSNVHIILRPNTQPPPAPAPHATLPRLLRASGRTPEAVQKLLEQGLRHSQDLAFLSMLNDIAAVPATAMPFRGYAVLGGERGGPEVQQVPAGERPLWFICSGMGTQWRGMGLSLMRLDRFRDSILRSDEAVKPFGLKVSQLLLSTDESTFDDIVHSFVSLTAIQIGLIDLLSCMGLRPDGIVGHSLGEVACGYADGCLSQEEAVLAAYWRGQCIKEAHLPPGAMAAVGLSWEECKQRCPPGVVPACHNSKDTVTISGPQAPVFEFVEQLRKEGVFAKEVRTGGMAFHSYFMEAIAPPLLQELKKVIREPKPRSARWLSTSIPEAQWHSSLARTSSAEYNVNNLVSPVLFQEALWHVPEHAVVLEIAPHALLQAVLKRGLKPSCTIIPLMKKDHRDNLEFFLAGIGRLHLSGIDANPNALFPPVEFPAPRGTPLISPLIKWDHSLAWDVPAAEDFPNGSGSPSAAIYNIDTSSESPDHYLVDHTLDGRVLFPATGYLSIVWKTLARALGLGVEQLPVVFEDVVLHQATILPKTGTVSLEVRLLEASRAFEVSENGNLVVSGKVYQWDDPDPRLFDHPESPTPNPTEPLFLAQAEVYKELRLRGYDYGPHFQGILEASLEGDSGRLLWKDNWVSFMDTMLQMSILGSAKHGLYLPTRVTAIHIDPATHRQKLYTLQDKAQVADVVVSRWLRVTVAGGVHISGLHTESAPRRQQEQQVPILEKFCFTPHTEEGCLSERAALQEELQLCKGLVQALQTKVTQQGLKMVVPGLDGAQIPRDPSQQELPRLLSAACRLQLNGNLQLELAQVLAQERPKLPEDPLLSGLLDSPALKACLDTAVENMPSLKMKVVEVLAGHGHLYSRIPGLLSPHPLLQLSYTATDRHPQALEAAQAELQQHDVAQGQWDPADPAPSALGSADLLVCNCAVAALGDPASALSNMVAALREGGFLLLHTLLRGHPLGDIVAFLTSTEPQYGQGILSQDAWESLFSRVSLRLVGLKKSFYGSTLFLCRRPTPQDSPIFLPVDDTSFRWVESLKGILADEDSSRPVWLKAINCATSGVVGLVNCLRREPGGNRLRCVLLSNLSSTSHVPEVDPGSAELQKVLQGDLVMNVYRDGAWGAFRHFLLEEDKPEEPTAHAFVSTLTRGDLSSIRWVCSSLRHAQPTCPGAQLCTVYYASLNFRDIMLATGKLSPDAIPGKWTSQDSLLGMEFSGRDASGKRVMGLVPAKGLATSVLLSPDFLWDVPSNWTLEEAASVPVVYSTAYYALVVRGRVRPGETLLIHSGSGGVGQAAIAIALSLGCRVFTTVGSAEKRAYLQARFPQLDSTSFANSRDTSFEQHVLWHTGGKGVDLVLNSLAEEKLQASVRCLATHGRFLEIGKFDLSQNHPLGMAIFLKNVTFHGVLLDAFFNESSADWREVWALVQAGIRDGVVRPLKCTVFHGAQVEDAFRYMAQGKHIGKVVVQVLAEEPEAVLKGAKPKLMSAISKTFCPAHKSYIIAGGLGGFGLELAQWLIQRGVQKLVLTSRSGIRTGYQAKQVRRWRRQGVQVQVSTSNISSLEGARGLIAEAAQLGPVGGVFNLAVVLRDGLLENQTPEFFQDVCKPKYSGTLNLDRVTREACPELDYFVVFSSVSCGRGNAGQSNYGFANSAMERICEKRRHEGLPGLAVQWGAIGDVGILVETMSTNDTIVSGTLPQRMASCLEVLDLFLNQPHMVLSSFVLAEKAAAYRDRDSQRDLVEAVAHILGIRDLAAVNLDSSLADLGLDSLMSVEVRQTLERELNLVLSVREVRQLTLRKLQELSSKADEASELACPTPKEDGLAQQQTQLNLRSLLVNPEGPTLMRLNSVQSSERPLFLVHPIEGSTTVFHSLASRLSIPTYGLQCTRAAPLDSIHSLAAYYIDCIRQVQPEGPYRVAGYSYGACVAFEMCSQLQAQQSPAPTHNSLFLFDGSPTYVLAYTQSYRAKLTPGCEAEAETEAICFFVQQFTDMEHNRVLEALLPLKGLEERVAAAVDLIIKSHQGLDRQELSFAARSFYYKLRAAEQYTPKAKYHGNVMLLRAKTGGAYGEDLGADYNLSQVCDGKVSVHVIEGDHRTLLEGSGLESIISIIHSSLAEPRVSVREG
Chain of Ion channel NompC (Q7T1G6 whole entry): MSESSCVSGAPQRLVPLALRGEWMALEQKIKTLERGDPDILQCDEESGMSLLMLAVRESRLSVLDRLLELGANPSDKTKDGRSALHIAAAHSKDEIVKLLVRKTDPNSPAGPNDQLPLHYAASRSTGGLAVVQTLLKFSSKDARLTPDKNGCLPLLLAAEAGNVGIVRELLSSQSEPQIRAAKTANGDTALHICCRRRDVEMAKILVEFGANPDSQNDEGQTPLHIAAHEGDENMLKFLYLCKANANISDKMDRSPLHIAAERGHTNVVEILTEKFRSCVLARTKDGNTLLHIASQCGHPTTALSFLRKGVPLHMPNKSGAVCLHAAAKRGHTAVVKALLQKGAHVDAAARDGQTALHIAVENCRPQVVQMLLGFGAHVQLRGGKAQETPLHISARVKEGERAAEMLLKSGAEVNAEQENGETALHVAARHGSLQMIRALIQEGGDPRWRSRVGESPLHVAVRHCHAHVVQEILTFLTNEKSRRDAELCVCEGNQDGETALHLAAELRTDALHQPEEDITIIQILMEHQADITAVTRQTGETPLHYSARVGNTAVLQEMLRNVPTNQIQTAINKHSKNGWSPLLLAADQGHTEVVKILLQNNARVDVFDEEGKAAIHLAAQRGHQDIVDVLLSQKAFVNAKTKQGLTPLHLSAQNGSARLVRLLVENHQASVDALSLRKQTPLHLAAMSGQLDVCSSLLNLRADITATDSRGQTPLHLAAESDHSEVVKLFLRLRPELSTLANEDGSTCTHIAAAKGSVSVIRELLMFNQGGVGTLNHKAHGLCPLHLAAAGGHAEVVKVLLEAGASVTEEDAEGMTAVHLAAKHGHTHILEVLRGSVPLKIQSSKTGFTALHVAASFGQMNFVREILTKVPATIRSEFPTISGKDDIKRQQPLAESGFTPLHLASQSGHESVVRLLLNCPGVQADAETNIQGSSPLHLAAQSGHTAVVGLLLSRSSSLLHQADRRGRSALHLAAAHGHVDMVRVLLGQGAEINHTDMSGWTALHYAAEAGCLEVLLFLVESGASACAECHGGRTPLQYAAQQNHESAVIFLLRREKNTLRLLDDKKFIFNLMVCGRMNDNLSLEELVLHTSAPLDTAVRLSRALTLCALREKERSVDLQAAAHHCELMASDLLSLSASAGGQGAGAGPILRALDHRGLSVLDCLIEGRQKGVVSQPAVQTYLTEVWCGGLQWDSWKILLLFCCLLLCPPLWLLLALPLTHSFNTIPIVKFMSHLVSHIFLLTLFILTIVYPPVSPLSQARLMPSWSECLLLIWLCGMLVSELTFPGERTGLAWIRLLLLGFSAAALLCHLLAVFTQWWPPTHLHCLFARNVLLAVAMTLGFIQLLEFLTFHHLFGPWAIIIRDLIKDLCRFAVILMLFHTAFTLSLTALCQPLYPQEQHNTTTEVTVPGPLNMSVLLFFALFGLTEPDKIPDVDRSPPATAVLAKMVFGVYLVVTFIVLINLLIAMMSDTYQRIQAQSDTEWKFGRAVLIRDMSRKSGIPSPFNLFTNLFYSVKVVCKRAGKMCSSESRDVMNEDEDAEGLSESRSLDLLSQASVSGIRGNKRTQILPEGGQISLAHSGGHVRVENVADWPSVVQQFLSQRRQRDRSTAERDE
Chain of Cytochrome P450 3A4 (P08684 whole entry, the tested form may be a part): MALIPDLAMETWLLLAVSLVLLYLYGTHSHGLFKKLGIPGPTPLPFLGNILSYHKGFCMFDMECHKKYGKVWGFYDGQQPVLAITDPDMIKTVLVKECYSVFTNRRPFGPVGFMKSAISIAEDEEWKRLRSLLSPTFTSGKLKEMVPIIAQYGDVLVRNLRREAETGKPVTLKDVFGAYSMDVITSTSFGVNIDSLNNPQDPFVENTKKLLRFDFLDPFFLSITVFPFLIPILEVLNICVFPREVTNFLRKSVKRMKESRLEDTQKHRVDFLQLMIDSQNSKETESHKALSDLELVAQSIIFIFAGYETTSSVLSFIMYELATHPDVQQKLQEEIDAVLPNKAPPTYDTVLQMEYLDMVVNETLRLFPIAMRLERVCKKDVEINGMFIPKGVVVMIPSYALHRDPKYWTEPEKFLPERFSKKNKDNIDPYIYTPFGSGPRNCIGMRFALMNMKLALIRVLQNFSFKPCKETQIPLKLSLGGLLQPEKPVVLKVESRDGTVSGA
Chain of X-box-binding protein 1 (P17861 whole entry, the tested form may be a part): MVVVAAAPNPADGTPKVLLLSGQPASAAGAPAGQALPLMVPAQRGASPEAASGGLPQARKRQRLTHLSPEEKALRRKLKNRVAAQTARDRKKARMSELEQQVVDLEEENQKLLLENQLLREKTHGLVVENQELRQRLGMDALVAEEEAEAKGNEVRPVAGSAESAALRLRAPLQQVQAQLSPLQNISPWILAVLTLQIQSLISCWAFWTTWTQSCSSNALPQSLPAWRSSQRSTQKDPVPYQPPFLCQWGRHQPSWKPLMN
Chain of DNA damage-inducible transcript 3 protein (P35639 whole entry): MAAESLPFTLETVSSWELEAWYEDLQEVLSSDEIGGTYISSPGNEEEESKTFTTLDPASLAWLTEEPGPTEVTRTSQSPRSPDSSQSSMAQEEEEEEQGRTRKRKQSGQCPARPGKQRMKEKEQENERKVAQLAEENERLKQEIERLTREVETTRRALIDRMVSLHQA

On to `Cc1cc(S(=O)(=O)N2CCCC(C(=O)Nc3ccc(C(=O)O)cc3)C2)ccc1Cl` (stereo not drawn), for which, on Troponin, cardiac muscle, the EC50 is > 71.5 µM (inactive).
Take `COc1ccc(CCN(C)C(=O)c2ccc(S(=O)(=O)Nc3ccccc3C)cc2)cc1OC`: in [1], the AC50 was > 350 µM (inactive).
With `COC(=O)C1=NN(C(=O)c2cccc(Cl)c2)C(O)(C(C)(C)C)C1` (stereo not drawn), the IC50 in assay [2], in [3] and in assay [4] was > 79.4 µM (inactive) throughout.
Turning to `Cc1cc(C)c(C)c(S(=O)(=O)ON2C(=O)c3ccccc3C2=O)c1C`, the results for the EC50 in [5] and in assay [8] were 4.78 µM (active) and 3.15 µM (inconclusive), respectively. The IC50 was 12.9 µM (active) on Coagulation factor XII, 0.61 µM (active) at Fatty acid synthase [6] and 0.417 µM (active) at Fatty acid synthase [9]. Besides, the AC50 on Cytochrome P450 3A4 was 39.8 µM (inconclusive). Further, the “Absolute IC50 (CHOP)” value in assay [7] amounted to 10 µM. Moreover, the “Absolute IC50 (XBP1)” value at X-box-binding protein 1 stood at 10 µM.
Turning to `N#C/C(=C(/O)C(Cl)(Cl)Cl)c1nc2ccccc2[nH]1`, the EC50 at Mucolipin-3 was > 29.9 µM (not active); on Ion channel NompC, > 29.9 µM (inactive).
For the molecule `Cc1ccc2nc(N3C(=O)C(O)=C(C(=O)c4ccco4)C3c3ccc(C)o3)sc2c1` (stereo not drawn), the EC50 in [5] is 0.071 µM (active); in assay [10] it was 26 µM (active); in assay [11], 9.58 µM (active); in assay [8], 67.5 µM (active); in assay [14] it was > 180 µM (inactive). Moreover, the IC50 in assay [12] was 14 µM (inactive); in assay [13], 30 µM (active).
Take `CC(C)(C)CCN1CCC[C@H](NC(=O)COc2ccc(F)cc2Cl)C1`: the EC50 in assay [15] was 2.4 µM (active).
